This test concerns CD2F1 mice, L1210 leukemia ip, survival T/C. The experiment in a line: NCI In Vivo Anticancer Drug Screen. Data for tumor model L1210 Leukemia (intraperitoneal) in CD2F1 (CDF1) mice. Conditions: higher = longer survival. In a few lines: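 Ratio T/C, where T is the treated-group value and C the vehicle-dosed control value, from mice implanted with a transplantable tumor.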
Where [1] appears, read: endpoint: mean survival time, dose: 100.0 mg/kg/injection, schedule: Q01DX001 (ip), vehicle: saline with Tween-80.
[2] abbreviates: endpoint: mean survival time, dose: 100.0 mg/kg/injection, schedule: Q01DX009 (ip), vehicle: saline.
The mark [3] stands for this setting: endpoint: mean survival time, dose: 200.0 mg/kg/injection, schedule: Q01DX009 (ip), vehicle: saline with Tween-80.
Setting [4] is: endpoint: mean survival time, dose: 100.0 mg/kg/injection, schedule: Q01DX009 (ip), vehicle: saline with Tween-80.
The mark [5] stands for this setting: endpoint: mean survival time, dose: 400.0 mg/kg/injection, schedule: Q01DX009 (ip), vehicle: saline with Tween-80.
[6] abbreviates: endpoint: mean survival time, dose: 100.0 mg/kg/injection, schedule: Q01DX001 (ip), vehicle: saline.
Where [7] appears, read: endpoint: mean survival time, dose: 200.0 mg/kg/injection, schedule: Q01DX001 (ip), vehicle: saline.
Where [8] appears, read: endpoint: mean survival time, dose: 400.0 mg/kg/injection, schedule: Q01DX001 (ip), vehicle: saline.
Setting [9] is: endpoint: mean survival time, dose: 100.0 mg/kg/injection, schedule: Q04DX003 (ip), vehicle: saline with Tween-80.
[10] abbreviates: endpoint: mean survival time, dose: 200.0 mg/kg/injection, schedule: Q04DX003 (ip), vehicle: saline with Tween-80.
The mark [11] stands for this setting: endpoint: mean survival time, dose: 400.0 mg/kg/injection, schedule: Q04DX003 (ip), vehicle: saline with Tween-80.
Where [12] appears, read: endpoint: mean survival time, dose: 100.0 mg/kg/injection, schedule: Q04DX003 (ip), vehicle: saline.
Where [13] appears, read: endpoint: mean survival time, dose: 200.0 mg/kg/injection, schedule: Q01DX001 (ip), vehicle: saline with Tween-80.
[14] abbreviates: endpoint: mean survival time, dose: 400.0 mg/kg/injection, schedule: Q01DX001 (ip), vehicle: saline with Tween-80.

Molecules are shown by their SMILES. Values joined by “and” are separate entries in the source; they are usually repeats but may differ in a detail not shown here. Equal entries are not always repeated. Toxic doses and inconclusive results are not listed.

This is an account of results in PubChem BioAssay AID256 (DTP/NCI, 2004).

`NCC1OC(OC2C(CO)OC(OC3C(O)C(N)CC(N)C3OC3OC(CO)C(O)CC3N)C2O)C(N)C(O)C1OC1OC(CO)C(O)C(O)C1O` (configuration not stated): the T/C was 98 % of control (endpoint: mean survival time, dose: 100.0 mg/kg/injection, schedule: Q04DX002 (ip), vehicle: saline); 92 % of control (endpoint: mean survival time, dose: 200.0 mg/kg/injection, schedule: Q04DX002 (ip), vehicle: saline); 95 % of control (endpoint: mean survival time, dose: 400.0 mg/kg/injection, schedule: Q04DX002 (ip), vehicle: saline).
`CCN(CC)c1cc(Cl)ccc1Cl`: the T/C (endpoint: mean survival time, dose: 25.0 mg/kg/injection, schedule: Q01DX009 (ip), vehicle: saline) is 102 % of control; the T/C (endpoint: mean survival time, dose: 25.0 mg/kg/injection, schedule: Q04DX002 (ip), vehicle: saline with Tween-80) was 91 % of control; the T/C (endpoint: mean survival time, dose: 50.0 mg/kg/injection, schedule: Q01DX009 (ip), vehicle: saline) was 101 % of control; the T/C (endpoint: mean survival time, dose: 50.0 mg/kg/injection, schedule: Q04DX002 (ip), vehicle: saline with Tween-80) was 95 % of control; the T/C under setting [1] is 98 % of control; the T/C under setting [2] was 101 % of control.
Consider `O=C1c2cccc3c2C2(O)c4c1cccc4C(=O)c1cccc(c12)C3=O`, for which the T/C is, setting by setting: (endpoint: mean survival time, dose: 132.0 mg/kg/injection, schedule: Q01DX009 (ip), vehicle: saline with Tween-80) 104 % of control; under setting [3], 121 % of control.
For the molecule `COc1ccc(CC2C(=O)OC(=O)C2Cc2ccc(OC)c(OC)c2)cc1OC` (configuration not stated), the T/C was 104 % of control under setting [4], 108 % of control under setting [3] and 96 % of control under setting [5].
`CS(=O)(=O)OCCN(CCOS(C)(=O)=O)c1ccc([N+](=O)[O-])cc1`: the T/C runs as follows: (endpoint: mean survival time, dose: 12.5 mg/kg/injection, schedule: Q01DX010 (ip), vehicle: saline) 100 % of control; (endpoint: mean survival time, dose: 25.0 mg/kg/injection, schedule: Q01DX010 (ip), vehicle: saline) 100 % of control; (endpoint: mean survival time, dose: 50.0 mg/kg/injection, schedule: Q01DX010 (ip), vehicle: saline) 115 % of control; (endpoint: mean survival time, dose: 100.0 mg/kg/injection, schedule: Q01DX010 (ip), vehicle: saline) 106 % of control.
On to `CC1(C)CCOC1=O`, for which the T/C is 105 % of control under setting [6], 103 % of control under setting [7] and 103 % of control under setting [8].
With `COc1ccc(Nc2ccccc2Cl)c(C(=O)O)c1`, the T/C under setting [9] was 98 % of control, the T/C under setting [10] is 102 % of control and the T/C under setting [11] is 102 % of control.
Turning to `COc1cc(NS(C)(=O)=O)ccc1Nc1c2ccc([N+](=O)[O-])cc2nc2c(C)cccc12`, the T/C runs as follows: (endpoint: mean survival time, dose: 3.75 mg/kg/injection, schedule: Q04DX003 (ip), vehicle: saline with Tween-80) 151 % of control; (endpoint: mean survival time, dose: 7.5 mg/kg/injection, schedule: Q01DX009 (ip), vehicle: saline with Tween-80) 111 % of control; (endpoint: mean survival time, dose: 7.5 mg/kg/injection, schedule: Q04DX003 (ip), vehicle: saline with Tween-80) 164 % of control; (endpoint: mean survival time, dose: 15.0 mg/kg/injection, schedule: Q04DX003 (ip), vehicle: saline with Tween-80) 235 % of control; (endpoint: mean survival time, dose: 37.5 mg/kg/injection, schedule: Q04DX003 (ip), vehicle: saline) 109 % of control; (endpoint: mean survival time, dose: 75.0 mg/kg/injection, schedule: Q04DX003 (ip), vehicle: saline) 86 % of control.
As to `CC(C)(C)S(=O)(=O)C(C)(C)C`, the T/C under setting [9] was 98 % of control, the T/C under setting [10] was 93 % of control and the T/C under setting [11] is 93 % of control.
For `Cc1ccc(C(C)C)c(OCC2=NCCN2C)c1`, the T/C is, setting by setting: under setting [12], 106 % of control; (endpoint: mean survival time, dose: 200.0 mg/kg/injection, schedule: Q04DX003 (ip), vehicle: saline) 106 % of control.
Consider `Clc1cc(Cl)cc(Nc2nc(C(Cl)(Cl)Cl)nc(C(Cl)(Cl)Cl)n2)c1`, for which the T/C was 98 % of control (endpoint: mean survival time, dose: 50.0 mg/kg/injection, schedule: Q01DX009 (ip), vehicle: saline with Tween-80); 95 % of control under setting [4]; 89 % of control under setting [9]; 90 % of control under setting [3]; 86 % of control under setting [10].
As to `CCOP1(=O)OCC(C(C)(C)C)CO1` (configuration not stated), the T/C by setting is: (endpoint: mean survival time, dose: 12.5 mg/kg/injection, schedule: Q04DX003 (ip), vehicle: Klucel (hydroxypropylcellulose) (HPC)) 102 % of control; (endpoint: mean survival time, dose: 25.0 mg/kg/injection, schedule: Q04DX003 (ip), vehicle: Klucel (hydroxypropylcellulose) (HPC)) 102 % of control.
Regarding `Nc1n[n+](-c2ccccc2)no1`, the T/C (endpoint: mean survival time, dose: 1.56 mg/kg/injection, schedule: Q01DX009 (ip), vehicle: water) was 106 % of control; the T/C (endpoint: mean survival time, dose: 3.12 mg/kg/injection, schedule: Q01DX009 (ip), vehicle: water) is 97 % of control and 100 % of control; the T/C (endpoint: mean survival time, dose: 6.25 mg/kg/injection, schedule: Q01DX009 (ip), vehicle: water) is 102 % of control and 105 % of control; the T/C (endpoint: mean survival time, dose: 12.5 mg/kg/injection, schedule: Q01DX009 (ip), vehicle: water) was 101 % of control and 108 % of control; the T/C (endpoint: mean survival time, dose: 25.0 mg/kg/injection, schedule: Q01DX009 (ip), vehicle: water) was 121 % of control and 111 % of control; the T/C (endpoint: mean survival time, dose: 50.0 mg/kg/injection, schedule: Q01DX009 (ip), vehicle: water) is 94 % of control.
With `O=C(O)C(S)C(S)C(=O)O.[As]` (configuration not stated), the T/C reads like this: (endpoint: mean survival time, dose: 25.0 mg/kg/injection, schedule: Q04DX003 (ip), vehicle: saline) 95 % of control; (endpoint: mean survival time, dose: 50.0 mg/kg/injection, schedule: Q01DX001 (ip), vehicle: saline) 89 % of control; (endpoint: mean survival time, dose: 50.0 mg/kg/injection, schedule: Q04DX003 (ip), vehicle: saline) 92 % of control; under setting [6], 100 % of control; under setting [12], 100 % of control.
Turning to `N#Cc1ccccc1C(C#N)c1ccc([N+](=O)[O-])cc1` (configuration not stated), the T/C reads like this: (endpoint: mean survival time, dose: 50.0 mg/kg/injection, schedule: Q04DX003 (ip), vehicle: DMSO) 93 % of control; (endpoint: mean survival time, dose: 100.0 mg/kg/injection, schedule: Q04DX003 (ip), vehicle: DMSO) 98 % of control; (endpoint: mean survival time, dose: 200.0 mg/kg/injection, schedule: Q04DX003 (ip), vehicle: DMSO) 93 % of control; (endpoint: mean survival time, dose: 400.0 mg/kg/injection, schedule: Q04DX003 (ip), vehicle: DMSO) 96 % of control.
With `CC(O)C1OC(n2cnc3c(=O)[nH]cnc32)CC1O` (configuration not stated), the T/C (endpoint: median survival time, dose: 12.5 mg/kg/injection, schedule: Q01DX005 (ip), vehicle: water) was 100 % of control; the T/C (endpoint: median survival time, dose: 25.0 mg/kg/injection, schedule: Q01DX005 (ip), vehicle: water) is 100 % of control; the T/C (endpoint: median survival time, dose: 50.0 mg/kg/injection, schedule: Q01DX005 (ip), vehicle: water) is 104 % of control; the T/C (endpoint: median survival time, dose: 100.0 mg/kg/injection, schedule: Q01DX005 (ip), vehicle: water) is 102 % of control; the T/C (endpoint: median survival time, dose: 200.0 mg/kg/injection, schedule: Q01DX005 (ip), vehicle: water) was 102 % of control.
Consider `Nc1nc(-c2ccccc2)c(CCCNc2ccc(C(=O)NC(CCC(=O)O)C(=O)O)cc2)c(=O)[nH]1` (configuration not stated), for which the T/C was 94 % of control under setting [2] and 96 % of control (endpoint: mean survival time, dose: 200.0 mg/kg/injection, schedule: Q01DX009 (ip), vehicle: saline).
Regarding `COc1cc2c(cc1OC)C(C)=NCC2`, the T/C under setting [12] is 104 % of control.
`O=C(Nc1ccc(F)cc1)Nc1ccc(F)cc1`: the T/C is 94 % of control (endpoint: mean survival time, dose: 100.0 mg/kg/injection, schedule: Q04DX002 (ip), vehicle: saline with Tween-80) and 87 % of control (endpoint: mean survival time, dose: 200.0 mg/kg/injection, schedule: Q04DX002 (ip), vehicle: saline with Tween-80).
Take `COc1cc(Cl)ccc1NC(=O)Oc1ccc(C)cc1[N+](=O)[O-]`: the T/C runs as follows: (endpoint: mean survival time, dose: 5.0 mg/kg/injection, schedule: Q01DX009 (ip), vehicle: saline with Tween-80) 93 % of control; under setting [4], 96 % of control; under setting [3], 96 % of control.
As for `O=C(O)/C(=C\c1ccccc1)c1ccccc1`, the T/C is 90 % of control under setting [4], 101 % of control under setting [3] and 95 % of control under setting [5].
For the molecule `COCC1C2CCC(C2)C1COC` (configuration not stated), the T/C reads like this: under setting [1], 104 % of control; under setting [13], 92 % of control; under setting [14], 97 % of control.
Regarding `O=C1CSC2(CCN(Cc3ccccc3)CC2)O1`, the T/C was 98 % of control under setting [6], 102 % of control under setting [7] and 95 % of control under setting [8].
On to `O=C1C(=O)c2cccc3cccc1c23`, for which the T/C reads like this: under setting [1], 100 % of control; under setting [13], 92 % of control; under setting [14], 97 % of control.
